Measurements as given in patent publication US10351561B2, “Pyrazolo[3,4-b]pyridines and imidazo[1,5-b]pyridazines as PDE1 inhibitors” (H. Lundbeck A/S, priority 2016, dated 2019).
pIC50: −log10 of the molar value. Read-outs that look alike come from different tables or passages of the source.

What was measured:
Type in all cases: biochemical
PDE1A = PDE1A (Homo sapiens, UniProt P54750); assay: PDE1 inhibition assay (PDE1A), SPA with tritium labelled cAMP; settings: 15 nM tritium labelled cAMP, 1 hr at room temperature, SPA beads
Sequence of PDE1A (P54750 whole entry): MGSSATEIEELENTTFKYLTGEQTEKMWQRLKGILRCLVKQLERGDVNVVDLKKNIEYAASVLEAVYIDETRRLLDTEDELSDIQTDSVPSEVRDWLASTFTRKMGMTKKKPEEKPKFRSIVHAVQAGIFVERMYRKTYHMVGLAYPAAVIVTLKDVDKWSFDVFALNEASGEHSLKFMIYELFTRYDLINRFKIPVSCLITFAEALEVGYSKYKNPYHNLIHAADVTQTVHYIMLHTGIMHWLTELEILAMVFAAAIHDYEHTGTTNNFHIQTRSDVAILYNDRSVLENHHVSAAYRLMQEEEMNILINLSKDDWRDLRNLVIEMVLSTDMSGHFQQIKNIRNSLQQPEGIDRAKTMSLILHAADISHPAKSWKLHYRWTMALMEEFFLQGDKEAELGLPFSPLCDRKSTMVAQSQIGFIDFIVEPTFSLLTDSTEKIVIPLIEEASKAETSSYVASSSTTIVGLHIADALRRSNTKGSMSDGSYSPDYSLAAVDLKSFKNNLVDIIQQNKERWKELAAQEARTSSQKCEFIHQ
Experimental: (§1) PDE1A, PDE1B and PDE1C assays were performed as follows: the assays were performed in 60 μL samples containing a fixed amount of the PDE1 enzyme (sufficient to convert 20-25% of the cyclic nucleotide substrate), a buffer (50 mM HEPES (4-(2-hydroxyethyl)-1-piperazineethanesulfonic acid) pH 7.6; 10 mM MgCl2; 0.02% Tween20), 0.1 mg/ml BSA (bovine serum albumin), 15 nM tritium labelled cAMP and varying amounts of inhibitors. Reactions were initiated by addition of the cyclic nucleotide substrate, and reactions were allowed to proceed for 1 hr at room temperature before being terminated through mixing with 20 μL (0.2 mg) yttrium silicate SPA beads (PerkinElmer). The beads were allowed to settle for 1 hr in the dark before the plates were counted in a Wallac 1450 Microbeta counter. The measured signals were converted to activity relative to an uninhibited control (100%) and IC50 values were calculated using XIFit (model 205, IDBS).

PDE1B = PDE1B (Homo sapiens, UniProt Q01064); assay: PDE1 inhibition assay (PDE1B), SPA with tritium labelled cAMP; settings: 15 nM tritium labelled cAMP, 1 hr at room temperature, SPA beads; for pIC50: read-out: PDE1B, IC50
Sequence of PDE1B (Q01064 whole entry): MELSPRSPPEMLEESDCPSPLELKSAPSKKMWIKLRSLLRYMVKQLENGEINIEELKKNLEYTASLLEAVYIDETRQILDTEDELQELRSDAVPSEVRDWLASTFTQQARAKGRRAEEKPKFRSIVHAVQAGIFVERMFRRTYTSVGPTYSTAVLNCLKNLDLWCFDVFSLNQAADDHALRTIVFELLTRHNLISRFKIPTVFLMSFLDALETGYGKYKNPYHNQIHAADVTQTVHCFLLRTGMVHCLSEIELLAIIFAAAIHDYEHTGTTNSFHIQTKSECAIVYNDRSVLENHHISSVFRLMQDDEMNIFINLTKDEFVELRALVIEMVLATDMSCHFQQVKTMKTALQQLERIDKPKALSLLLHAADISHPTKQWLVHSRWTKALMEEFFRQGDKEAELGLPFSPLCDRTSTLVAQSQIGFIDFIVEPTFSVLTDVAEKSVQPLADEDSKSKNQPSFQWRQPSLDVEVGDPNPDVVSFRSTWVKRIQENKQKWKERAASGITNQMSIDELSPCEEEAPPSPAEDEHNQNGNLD
Experimental: Reactions were initiated by addition of the cyclic nucleotide substrate, and reactions were allowed to proceed for 1 hr at room temperature before being terminated through mixing with 20 μL (0.2 mg) yttrium silicate SPA beads (PerkinElmer).

PDE1C = PDE1C (Homo sapiens, UniProt Q14123); assay: PDE1 inhibition assay (PDE1C), SPA with tritium labelled cAMP; settings: 15 nM tritium labelled cAMP, 1 hr at room temperature, SPA beads
Sequence of PDE1C (Q14123 whole entry): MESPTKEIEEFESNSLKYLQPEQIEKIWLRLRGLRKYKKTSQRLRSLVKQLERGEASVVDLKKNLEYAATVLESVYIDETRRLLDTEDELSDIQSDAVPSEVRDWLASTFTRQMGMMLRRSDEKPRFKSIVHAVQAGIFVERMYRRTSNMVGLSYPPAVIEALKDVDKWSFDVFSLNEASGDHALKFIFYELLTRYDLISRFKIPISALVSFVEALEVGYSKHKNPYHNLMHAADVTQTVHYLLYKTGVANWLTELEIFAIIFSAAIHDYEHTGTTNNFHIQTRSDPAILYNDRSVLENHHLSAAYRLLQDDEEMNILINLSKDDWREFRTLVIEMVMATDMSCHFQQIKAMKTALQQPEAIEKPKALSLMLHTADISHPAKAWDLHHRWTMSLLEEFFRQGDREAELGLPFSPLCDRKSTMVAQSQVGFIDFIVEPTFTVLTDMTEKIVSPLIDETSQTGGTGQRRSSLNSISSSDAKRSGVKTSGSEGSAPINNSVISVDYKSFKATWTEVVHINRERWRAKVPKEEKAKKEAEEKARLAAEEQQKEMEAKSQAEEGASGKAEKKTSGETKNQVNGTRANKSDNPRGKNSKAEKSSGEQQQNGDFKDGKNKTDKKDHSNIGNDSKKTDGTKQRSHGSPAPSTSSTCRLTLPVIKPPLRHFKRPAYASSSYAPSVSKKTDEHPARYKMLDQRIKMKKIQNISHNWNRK
Experimental: as §1

Structure (SMILES)	pIC50 (PDE1A)	pIC50 (PDE1B)	pIC50 (PDE1C)	IC50 (PDE1B; PDE1B, IC50 (nM)) [nM]
CCOc1ncccc1-c1cc(NCc2nc(C)no2)c2c(C(C)C)nn(C)c2n1 [Example 32, 6-(2-ethoxy-3-pyridyl)-3-isopropyl-1-methyl-N-[(3-methyl-1,2,4-oxadiazol-5-yl)methyl]pyrazolo[3,4-b]pyridin-4-amine]	7.09	8.11	7.20	
CCCOc1ncccc1-c1cc(NCc2ncn(C)n2)c2c(C(C)C)nn(C)c2n1 [Example 33, 3-isopropyl-1-methyl-N-[(1-methyl-1,2,4-triazol-3-yl)methyl]-6-(2-propoxy-3-pyridyl)pyrazolo[3,4-b]pyridin-4-amine]	8.47	9.38	8.28	
CCCOc1ncccc1-c1cc(NCc2cn(C)cn2)c2c(C(C)C)nn(C)c2n1 [Example 34, 3-isopropyl-1-methyl-N-[(1-methylimidazol-4-yl)methyl]-6-(2-propoxy-3-pyridyl)pyrazolo[3,4-b]pyridin-4-amine]	8.57	9.54	8.42	
CCOc1ncccc1-c1cc(NCc2nccc(C)n2)c2c(C(C)C)nn(C)c2n1 [Example 35, 6-(2-ethoxy-3-pyridyl)-3-isopropyl-1-methyl-N-[(4-methylpyrimidin-2-yl)methyl]pyrazolo[3,4-b]pyridin-4-amine]	6.70	7.60	6.74	
CCOc1ncccc1-c1cc(NCc2ncccn2)c2c(C(C)C)nn(C)c2n1 [Example 36, 6-(2-ethoxy-3-pyridyl)-3-isopropyl-1-methyl-N-(pyrimidin-2-ylmethyl)pyrazolo[3,4-b]pyridin-4-amine]	7.30	8.40	7.11	
CCOc1ncccc1-c1cc(NCc2ccc(OC)nc2)c2c(C(C)C)nn(C)c2n1 [Example 37, 6-(2-ethoxy-3-pyridyl)-3-isopropyl-N-[(6-methoxy-3-pyridyl)methyl]-1-methyl-pyrazolo[3,4-b]pyridin-4-amine]	6.92	7.57	7.34	
CCOc1ncccc1-c1cc(NCc2cccnc2C(F)(F)F)c2c(C(C)C)nn(C)c2n1 [Example 38, 6-(2-ethoxy-3-pyridyl)-3-isopropyl-1-methyl-N-[[2-(trifluoromethyl)-3-pyridyl]methyl]pyrazolo[3,4-b]pyridin-4-amine]	6.74	7.48	6.74	
CCOc1ncccc1-c1cc(NCc2cc(OC)ccn2)c2c(C(C)C)nn(C)c2n1 [Example 39, 6-(2-ethoxy-3-pyridyl)-3-isopropyl-N-[(4-methoxy-2-pyridyl)methyl]-1-methyl-pyrazolo[3,4-b]pyridin-4-amine]	7.57	8.47	7.60	
CCOc1ncccc1-c1cc(NCc2ccccn2)c2c(C(C)C)nn(C)c2n1 [Example 40, 6-(2-ethoxy-3-pyridyl)-3-isopropyl-1-methyl-N-(2-pyridylmethyl)pyrazolo[3,4-b]pyridin-4-amine]	7.17	8.05	7.09	
CCOc1ncccc1-c1cc(NCc2cccc(OC)n2)c2c(C(C)C)nn(C)c2n1 [Example 41, 6-(2-ethoxy-3-pyridyl)-3-isopropyl-N-[(6-methoxy-2-pyridyl)methyl]-1-methyl-pyrazolo[3,4-b]pyridin-4-amine]	6.36	6.96	6.25	
CCOc1ncccc1-c1cc(NCc2cccc(C)n2)c2c(C(C)C)nn(C)c2n1 [Example 42, 6-(2-ethoxy-3-pyridyl)-3-isopropyl-1-methyl-N-[(6-methyl-2-pyridyl)methyl]pyrazolo[3,4-b]pyridin-4-amine]	6.74	7.70	6.70	
CCOc1ncccc1-c1cc(NCc2ncon2)c2c(C(C)C)nc(C)n2n1 [Example 43, 2-(2-ethoxy-3-pyridyl)-5-isopropyl-7-methyl-N-(1,2,4-oxadiazol-3-ylmethyl)imidazo[1,5-b]pyridazin-4-amine]	7.40	8.24	7.47	
CCOc1ncccc1-c1cc(NCc2cnn(C)n2)c2c(C(C)C)nc(C)n2n1 [Example 44, 2-(2-ethoxy-3-pyridyl)-5-isopropyl-7-methyl-N-[(2-methyltriazol-4-yl)methyl]imidazo[1,5-b]pyridazin-4-amine]	7.42	8.29	7.62	
CCOc1ncccc1-c1cc(NCc2nnc(C)o2)c2c(C(C)C)nc(C)n2n1 [Example 45, 2-(2-ethoxy-3-pyridyl)-5-isopropyl-7-methyl-N-[(5-methyl-1,3,4-oxadiazol-2-yl)methyl]imidazo[1,5-b]pyridazin-4-amine]	7.38	8.11	7.43	
CCOc1ncccc1-c1cc(NCc2nc(C)no2)c2c(C(C)C)nc(C)n2n1 [Example 46, 2-(2-ethoxy-3-pyridyl)-5-isopropyl-7-methyl-N-[(3-methyl-1,2,4-oxadiazol-5-yl)methyl]imidazo[1,5-b]pyridazin-4-amine]	7.68	8.39	7.85	
COc1ncccc1-c1cc(NCc2ncn(C)n2)c2c(C(C)C)nn(C)c2n1 [Example 55, 3-isopropyl-6-(2-methoxy-3-pyridyl)-1-methyl-N-[(1-methyl-1,2,4-triazol-3-yl)methyl]pyrazolo[3,4-b]pyridin-4-amine]	6.89	7.52	7.35	
CC(C)c1nn(C)c2nc(-c3cccn(C)c3=O)cc(NCc3ncn(C)n3)c12 [Example 56, 3-(3-isopropyl-1-methyl-4-(((1-methyl-1H-1,2,4-triazol-3-yl)methyl)amino)-1H-pyrazolo[3,4-b]pyridin-6-yl)-1-methylpyridin-2(1H)-one]	6.54	7.28	6.32	
COc1nccnc1-c1cc(NCc2ncn(C)n2)c2c(C(C)C)nn(C)c2n1 [Example 57, 3-isopropyl-6-(3-methoxypyrazin-2-yl)-1-methyl-N-((1-methyl-1H-1,2,4-triazol-3-yl)methyl)-1H-pyrazolo[3,4-b]pyridin-4-amine]	7.04	7.66	8.19	
Cc1sccc1-c1cc(NCc2ncn(C)n2)c2c(C(C)C)nn(C)c2n1 [Example 58, 3-isopropyl-1-methyl-6-(2-methyl-3-thienyl)-N-[(1-methyl-1,2,4-triazol-3-yl)methyl]pyrazolo[3,4-b]pyridin-4-amine]	7.54	8.34	7.51	
Cc1coc(-c2cc(NCc3ncn(C)n3)c3c(C(C)C)nn(C)c3n2)n1 [Example 59, 3-isopropyl-1-methyl-N-((1-methyl-1H-1,2,4-triazol-3-yl)methyl)-6-(4-methyloxazol-2-yl)-1H-pyrazolo[3,4-b]pyridin-4-amine]	7.00		7.17	14
Cc1csc(-c2cc(NCc3ncn(C)n3)c3c(C(C)C)nn(C)c3n2)n1 [Example 60, 3-isopropyl-1-methyl-6-(4-methylthiazol-2-yl)-N-[(1-methyl-1,2,4-triazol-3-yl)methyl]pyrazolo[3,4-b]pyridin-4-amine]	7.32	8.06	7.13	
Cc1ncsc1-c1cc(NCc2ncn(C)n2)c2c(C(C)C)nn(C)c2n1 [Example 61, 3-isopropyl-1-methyl-N-((1-methyl-1H-1,2,4-triazol-3-yl)methyl)-6-(4-methylthiazol-5-yl)-1H-pyrazolo[3,4-b]pyridin-4-amine]	7.49	8.34	7.34	
Cc1cnc(-c2cc(NCc3ncn(C)n3)c3c(C(C)C)nn(C)c3n2)s1 [Example 62, 3-isopropyl-1-methyl-6-(5-methylthiazol-2-yl)-N-[(1-methyl-1,2,4-triazol-3-yl)methyl]pyrazolo[3,4-b]pyridin-4-amine]	6.55	6.77	6.82	
CC(C)c1nn(C)c2nc(-c3ccccc3)cc(NCc3ncn(C)n3)c12 [Example 63, 3-isopropyl-1-methyl-N-[(1-methyl-1,2,4-triazol-3-yl)methyl]-6-phenyl-pyrazolo[3,4-b]pyridin-4-amine]	7.08	7.68	7.44	
COc1ncncc1-c1cc(NCc2ncn(C)n2)c2c(C(C)C)nn(C)c2n1 [Example 64, 3-isopropyl-6-(4-methoxypyrimidin-5-yl)-1-methyl-N-[(1-methyl-1,2,4-triazol-3-yl)methyl]pyrazolo[3,4-b]pyridin-4-amine]	7.18	7.89	8.54	
CC(C)c1nn(C)c2nc(-c3cccs3)cc(NCc3ncn(C)n3)c12 [Example 65, 3-isopropyl-1-methyl-N-[(1-methyl-1,2,4-triazol-3-yl)methyl]-6-(2-thienyl)pyrazolo[3,4-b]pyridin-4-amine]	7.51	8.29	7.34	
CCOc1nnccc1-c1cc(NCc2ncn(C)n2)c2c(C(C)C)nn(C)c2n1 [Example 66, 6-(3-ethoxypyridazin-4-yl)-3-isopropyl-1-methyl-N-[(1-methyl-1,2,4-triazol-3-yl)methyl]pyrazolo[3,4-b]pyridin-4-amine]	7.57	8.43	7.41	
